Results on 3 compounds are retold here after US20240383869A1, “ARYLACETYL INHIBITORS OF TG2 AND USES THEREOF” (UNIVERSITY OF OTTAWA, priority 2021, published 2024).

One experiment has as its target T1, hTG2 (Homo sapiens, UniProt P21980).
T1 sequence (P21980 1-687): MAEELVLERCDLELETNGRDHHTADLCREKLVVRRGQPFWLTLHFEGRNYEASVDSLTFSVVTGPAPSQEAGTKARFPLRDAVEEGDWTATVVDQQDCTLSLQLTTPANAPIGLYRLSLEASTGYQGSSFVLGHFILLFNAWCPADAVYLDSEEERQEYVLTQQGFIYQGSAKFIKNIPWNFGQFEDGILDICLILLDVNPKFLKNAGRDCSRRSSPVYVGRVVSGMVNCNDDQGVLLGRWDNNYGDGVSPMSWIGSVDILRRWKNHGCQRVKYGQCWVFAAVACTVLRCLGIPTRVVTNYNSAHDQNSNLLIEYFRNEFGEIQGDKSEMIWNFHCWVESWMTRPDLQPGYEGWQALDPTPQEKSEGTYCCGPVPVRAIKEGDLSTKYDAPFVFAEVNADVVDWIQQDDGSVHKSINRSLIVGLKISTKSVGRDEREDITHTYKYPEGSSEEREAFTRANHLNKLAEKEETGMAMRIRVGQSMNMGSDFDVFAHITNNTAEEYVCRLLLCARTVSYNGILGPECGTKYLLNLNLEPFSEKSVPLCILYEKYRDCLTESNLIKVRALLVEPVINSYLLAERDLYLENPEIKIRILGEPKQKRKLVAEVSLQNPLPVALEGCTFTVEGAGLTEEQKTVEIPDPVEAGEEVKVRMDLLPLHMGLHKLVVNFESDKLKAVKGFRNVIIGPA
Put plainly: biochemical. The following applies: for inactivation of TG2: isozyme selectivity, normalized [I]/α; for Ki: read-out: KI (converted).

A further experiment addresses T2, TG3a (Homo sapiens, UniProt Q08188).
T2 construct: purchased Zedira
T2 sequence (Q08188 2-467 limits assumed): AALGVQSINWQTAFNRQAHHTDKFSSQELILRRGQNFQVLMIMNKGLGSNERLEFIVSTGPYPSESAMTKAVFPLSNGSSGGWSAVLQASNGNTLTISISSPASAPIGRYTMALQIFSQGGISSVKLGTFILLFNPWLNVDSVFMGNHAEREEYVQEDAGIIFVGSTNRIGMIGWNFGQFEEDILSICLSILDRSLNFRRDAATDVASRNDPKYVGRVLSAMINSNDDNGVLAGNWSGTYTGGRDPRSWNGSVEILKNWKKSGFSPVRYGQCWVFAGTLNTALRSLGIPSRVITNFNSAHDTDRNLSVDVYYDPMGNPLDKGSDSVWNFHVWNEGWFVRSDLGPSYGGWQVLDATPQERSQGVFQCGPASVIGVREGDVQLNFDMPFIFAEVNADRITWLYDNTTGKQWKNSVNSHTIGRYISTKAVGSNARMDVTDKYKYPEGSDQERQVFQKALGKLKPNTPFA
T2 sequence (Q08188 468-693 partner limits assumed): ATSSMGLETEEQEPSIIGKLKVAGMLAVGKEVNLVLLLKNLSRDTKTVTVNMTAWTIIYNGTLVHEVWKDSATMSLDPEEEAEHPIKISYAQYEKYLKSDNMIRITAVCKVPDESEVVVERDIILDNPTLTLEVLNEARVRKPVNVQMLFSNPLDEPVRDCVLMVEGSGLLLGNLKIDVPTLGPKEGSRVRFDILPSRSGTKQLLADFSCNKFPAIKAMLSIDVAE
The experiment is described as follows: Fluorescence isopeptidase activity assay (A101 FRET-quenched probe), isozyme selectivity. The following applies: normalized [I]/α. The class given is biochemical. The procedure:
Fluorescence isopeptidase activity assay. The isopeptidase activity of pre-activated TG3a and FXIIIa (purchased from Zedira) was measured via a fluorescence-based assay as described (Kirily, R. et al., “Isopeptidase activity of human transglutaminase 2: disconnection from transamidation and characterization by kinetic parameters.” Amino Acids 2016, 48 (1), 31-40) using the commercially available peptidic FRET quenched probe A101. Briefly, the final concentration in the reaction mixture contained 50 mM Tris (pH 7.0), 10 mM CaCl2, 100 mM NaCl, 2.8 mM TCEP, 50 μM A101 and 14 mM H-Gly-OMe. The reaction was monitored at 25° C. using a BioTek Synergy 4 plate reader (Ex/Em: 318/413 nm). Enzymatic inhibition assays were run under Kitz and Wilson conditions (Kitz, R. and Wilson, I. B., “Esters of methanesulfonic acid as irreversible inhibitors of acetylcholinesterase.” J. Biol. Chem. 1962, 237, 3245-49), which were established for TG3a and FXIIIa at a substrate (A101) concentration of 50 μM using enzyme concentrations of 0.17 μM and 0.11 μM for TG3a and FXIIIa, respectively.

The mark [1] stands for this setting: fit to saturation kinetics model, 25° C., pH 6.95, 100 μM AL5.

Read-outs that look alike come from different tables or passages of the source.

On to `C=CC(=O)NCCCC[C@H](NC(=O)OCc1ccccc1)C(=O)N1CCN(C(=O)c2cccc3ccccc23)CC1` [AA9, reference compound], for which the “inactivation of TG2” value on hTG2 was “inactivated TG2 almost completely, in less than five minutes”. Moreover, on hTG2 (pH 6.95), the kinact/KI was 4070 M⁻¹ s⁻¹. Also, the “inhibition of TG3a” value on TG3a was “none of these inhibitors showed any detectable inhibition”.

Turning to `C=CC(=O)NCCCC[C@H](NC(=O)Cc1ccccc1F)C(=O)N1CCN(C(=O)c2cccc3ccccc23)CC1` [Inhibitor 72, (S)-N-(6-(4-(1-naphthoyl)piperazin-1-yl)-5-(2-(2-fluorophenyl)acetamido)-6-oxohexyl)acrylamide], on hTG2 (setting [1]), the Ki – broadly, a measure of affinity in units of concentration, obtained from inhibition or displacement – is 1 ± 0.2 µM. Also, the “inactivation of TG2” value at hTG2 is recorded as “inactivated TG2 almost completely, in less than five minutes”. Further, the “inhibition of TG3a” value on TG3a was “none of these inhibitors showed any detectable inhibition”.

Take `C=CC(=O)NCCCC[C@H](NC(=O)Cc1ccccc1C)C(=O)N1CCN(C(=O)c2cccc3ccccc23)CC1` [Inhibitor 74, (S)-N-(6-(4-(1-naphthoyl)piperazin-1-yl)-5-(2-(2-methylphenyl)acetamido)-6-oxohexyl)acrylamide]: the inhibitory constant (Ki) on hTG2 (setting [1]) was 6.1 ± 1.8 µM. The kinact – broadly, the maximal first-order rate at which the target is inactivated – on hTG2 (fit to saturation kinetics model, 25° C., pH 6.95, 100 μM AL5, read-out: kinact (converted)) was 0.035 s⁻¹. Moreover, the kinact/KI at hTG2 (fit to saturation kinetics model, 25° C., pH 6.95, 100 μM AL5, read-out: kinact/KI (converted)) is 5870 M⁻¹ s⁻¹. Also, at hTG2, the “inactivation of TG2” value is given as “inactivated TG2 almost completely, in less than five minutes”. Further, at TG3a, the “inhibition of TG3a” value is given as “none of these inhibitors showed any detectable inhibition”.
